Laboratory results from ChEMBL document CHEMBL4420063, “Pgam1 inhibitors and methods related thereto” (2014).

Key:
[1] = Toxicity in athymic nude-Foxn1nu mouse assessed as effect on body weight at 100 mg/kg/day, ip for 7 days; assay type: organism-based; conditions: in vivo, 168 h
[2] = test system: HaCaT; experiment: Antiproliferative activity against human HaCaT cells assessed as reduction in cell number up to 40 uM by trypan blue exclusion based assay
[3] = Toxicity in athymic nude-Foxn1nu mouse assessed as effect on liver at 100 mg/kg/day, ip for 7 days by H and E staining based histo-pathological analysis; assay type: organism-based; conditions: in vivo, 168 h
[4] = Toxicity in athymic nude-Foxn1nu mouse assessed as effect on complete blood counts at 100 mg/kg/day, ip for 7 days; assay type: organism-based; conditions: in vivo, 168 h
[5] = Toxicity in athymic nude-Foxn1nu mouse assessed as effect on kidney at 100 mg/kg/day, ip for 7 days by H and E staining based histo-pathological analysis; assay type: organism-based; conditions: in vivo, 168 h
[6] = Antiproliferative activity against CD34-positive blood stem/progenitor cells from healthy human assessed as reduction in cell viability at 20 uM by trypan blue exclusion based assay
[7] = test system: NCI-H1299; experiment: Inhibition of cell proliferation in human NCI-H1299 cells assessed as reduction in cell number by MTT assay; assay type: functional, cell-based
[8] = Toxicity in ip dosed athymic nude-Foxn1nu mouse dosed for 4 weeks assessed as well-tolerated dose level; assay type: organism-based; conditions: in vivo, 672 h
[9] = Antiproliferative activity against human PIG1 cells assessed as reduction in cell number up to 40 uM by trypan blue exclusion based assay
[10] = test system: NHDF; experiment: Antiproliferative activity against NHDF cells assessed as reduction in cell number up to 40 uM by trypan blue exclusion based assay; conditions: human
[11] = Toxicity in athymic nude-Foxn1nu mouse assessed as effect on spleen at 100 mg/kg/day, ip for 7 days by H and E staining based histo-pathological analysis; assay type: organism-based; conditions: in vivo, 168 h
[12] = Toxicity in athymic nude-Foxn1nu mouse assessed as effect on hematopoietic parameters at 100 mg/kg/day, ip for 7 days; assay type: organism-based; conditions: in vivo, 168 h
[13] = test system: KG-1a; experiment: Inhibition of cell proliferation in human KG1a cells assessed as reduction in cell number by MTT assay; assay type: functional, cell-based
[14] = test system: HFF; experiment: Antiproliferative activity against HFF cells assessed as reduction in cell number up to 40 uM by trypan blue exclusion based assay; conditions: human
[15] = Inhibition of cell proliferation in human Tu212LN cells assessed as reduction in cell number by MTT assay; assay type: functional, cell-based
[16] = Toxicity in athymic nude-Foxn1nu mouse assessed as effect on lung at 100 mg/kg/day, ip for 7 days by H and E staining based histo-pathological analysis; assay type: organism-based; conditions: in vivo, 168 h
[17] = test system: PBMC; experiment: Antiproliferative activity against PBMC from healthy human assessed as reduction in cell viability at 10 to 20 uM by MTT assay; assay type: cell-based
[18] = test system: KG-1a; experiment: Inhibition of cell proliferation in human KG1a cells assessed as reduction in cell number by trypan blue exclusion based assay; assay type: functional

O=C1c2ccccc2C(=O)c2c1cc(S(=O)(=O)Nc1ccc(C(F)(F)F)cc1)c(O)c2O
Activity [1]: Non-Toxic
Activity [2]: Non-Toxic
Activity [3]: Non-Toxic
Activity [4]: Non-Toxic
Activity [5]: Non-Toxic
Activity [6]: Non-Toxic
IC50 [7]: 25.6 µM
Activity [8]: 100 mg/kg/day
Activity [9]: Non-Toxic
Activity [10]: Non-Toxic
Activity [11]: Non-Toxic
Activity [12]: Non-Toxic
IC50 [13]: 17.1 µM
Activity [14]: Non-Toxic
IC50 [15]: 26.5 µM
Activity [16]: Non-Toxic
Activity [17]: Non-Toxic

O=C1c2ccccc2C(=O)c2c1ccc(O)c2O [ATHRAQUINONES A]
IC50 [18]: 58.6 µM
IC50 [13]: 60.2 µM
